The values that follow come from patent US8796297B2, “4-substituted-2-amino-pyrimidine derivatives” (AbbVie Inc., priority 2009, dated 2014).

One may read the Ki as the equilibrium dissociation constant of an inhibitor or competing ligand from its target. Low readings indicate a stronger hold on the target, high ones a looser hold on the target. One may read the EC50 as the concentration giving half of the maximal effect.

The target of assay [1] is T1, rat histamine H3 receptor (Rattus norvegicus (Rat), UniProt Q9QYN8). Kind of assay: Radioligand competition binding assay, rat H3 receptor. The settings on record: [3H]-N-α-methylhistamine competition binding. The method, then: To determine the effectiveness of representative compounds of this invention as histamine-3 receptor ligands (H3 receptor ligands), the following tests were conducted according to previously described methods (see European Journal of Pharmacology 1990, 188, 219-227; Journal of Pharmacology and Experimental Therapeutics 1995, 275, 598-604; Journal of Pharmacology and Experimental Therapeutics 1996, 276, 1009-1015; and Biochemical Pharmacology 1973, 22, 3099-3108).
The rat H3 receptor was cloned and expressed in cells, and competition binding assays carried out, according to methods previously described (see Esbenshade, et al. Journal of Pharmacology and Experimental Therapeutics 2005, 313, 165-175; Esbenshade et al., Biochemical Pharmacology 2004, 68, 933-945; and Krueger, et al. Journal of Pharmacology and Experimental Therapeutics 2005, 314, 271-281). Membranes were prepared from C6 or HEK293 cells, expressing the rat histamine H3 receptor, by homogenization on ice in TE buffer (50 mM Tris-HCl buffer, pH 7.4, containing 5 mM EDTA), 1 mM benzamidine, 2 μg/ml aprotinin, 1 μg/ml leupeptin, and 1 μg/ml pepstatin. The homogenate was centrifuged at 40,000 g for 20 minutes at 4° C. This step was repeated, and the resulting pellet was resuspended in TE buffer. Aliquots were frozen at −70° C. until needed. On the day of assay, membranes were thawed and diluted with TE buffer.
Membrane preparations were incubated with [^3H]-N-α-methylhistamine (0.5-1.0 nM) in the presence or absence of increasing concentrations of ligands for H3 receptor competition binding. The binding incubations were conducted in a final volume of 0.5 ml TE buffer at 25° C. and were terminated after 30 minutes. Thioperamide (30 μM) was used to define non-specific binding. All binding reactions were terminated by filtration under vacuum onto polyethylenimine (0.3%) presoaked Unifilters (Perkin Elmer Life Sciences) or Whatman GF/B filters followed by three brief washes with 2 ml of ice-cold TE buffer. Bound radiolabel was determined by liquid scintillation counting. For all of the radioligand competition binding assays, IC50 values and Hill slopes were determined by Hill transformation of the data and pKi values were determined by the Cheng-Prusoff equation.
(In general: Loss of bound radioactivity is the signal in a displacement assay; it reports binding, not function.)

Assay [2] concerns acetic acid-induced writhing. In words: Acetic acid-induced writhing in mice. The format is in vivo. The settings on record: subcutaneous dose of 300 mg/kg, 30 minutes prior to 0.9% acetic acid ip. The method, then: Intraperitoneal injection of 0.9% acetic acid induces a writhing response that is quantified by counting the number of these induced characteristic lengthwise abdominal constrictions with torso elongations in a fixed time period (Langford, D. J.; et al. Science 2006, 312, 1967-1970). Reduction of the number of writhes by a compound administered 30 minutes prior to acetic acid exposure is a measure of analgesic activity.
In general terms: Writhing tests count abdominal constrictions after an irritant is injected.

Assay [3] concerns the target T2, human histamine H3 receptor (Homo sapiens (Human), UniProt Q9Y5N1). In words: FLIPR functional assay (Ca2+, HEK-293 cells coexpressing Gαqi5), human H3 receptor. It is filed as cell-based. The settings on record: for EC50: FLIPR agonist potency; for Emax: HEK293, read-out: Human Maximum (%). The text has this: (§1) There are many methods available to show the effectiveness of compounds as histamine H3 receptor ligands. Histamine H3 receptors from mammalian species have been cloned. Methods to clone, express, and assess the potency and functional activity of such cloned genes are well known to those skilled in the art of molecular biology. […] In the present case, to determine the potency and effectiveness of representative compounds of this invention as histamine-H3 receptor ligands (H3 receptor ligands), the following tests were conducted according to previously described methods (see Esbenshade, et al., Journal of Pharmacology and Experimental Therapeutics 2003, 305, 887-896, Esbenshade, et al., Biochemical Pharmacology 2004, 68, 933-945, and in Krueger, et al., Journal of Pharmacology and Experimental Therapeutics 2005, 314, 271-281): histamine H3 receptors were cloned and stably expressed in HEK-293 (human embryonic kidney) cells coexpressing a Gαqi5. Before testing, cells were loaded with a Ca^+2 sensitive fluorescent dye, in this case Fluo-4. For partial agonist or full agonist ligands, addition of compound to the cells led to an increase in intracellular Ca^+2 which was detected by FLIPR (Fluorescence Imaging Plate Reader; Molecular Devices, Sunnyvale, Calif.) technology. The fluorescence intensities measured before addition of the test compound were subtracted from the fluorescence intensities at later time points. Peak response values determined at each concentration of ligand were expressed as a percentage of the response obtained with a maximal concentration (1 μM) of the full agonist R-α-methyl-histamine (RAMH). Concentration versus response data were analyzed to obtain compound potency as EC50 values for full and partial agonists.

Assay [4] deals with T1, rat histamine H3 receptor. Kind of assay: FLIPR functional assay (Ca2+, HEK-293 cells coexpressing Gαqi5), rat H3 receptor. The format is cell-based. To be noted: for EC50: FLIPR agonist potency; for Rat Maximum (%): FLIPR, percentage of the response to 1 μM RAMH.
Description: as §1

Another assay deals with human H3R (Homo sapiens (Human), UniProt Q9Y5N1). In words: GTPγS functional assay, membranes from HEK cells expressing the human H3R. It is filed as biochemical. To be noted: for EC50: GTPγS agonist potency; for Emax: 5 min, read-out: Human Maximum (%). As to the method: (§2) Membranes from HEK cells expressing the human H3R, or from C6 cells expressing the rat H3R, were prepared by homogenization in cold buffer containing 50 mM Tris-HCl (pH 7.4), 5 mM EDTA, 10 mM MgCl2, 1 mM benzamidine, 2 μg/ml aprotinin, 1 μg/ml leupeptin, and 1 μg/ml pepstatin. The homogenate was centrifuged at 40,000 g for 20 min at 4° C., and the resulting pellet was resuspended in 50 mM Tris-HCl (pH 7.4), 5 mM EDTA, and 10 mM MgCl2 and homogenized. Glycerol and bovine serum albumin were added to a final concentration of 10% glycerol and 1% bovine serum albumin. Membranes were diluted in GTPγS assay buffer (25 mM HEPES, 2.5 mM MgCl2, and 75 mM NaCl, pH 7.4) and 10 μg of membrane protein was incubated in a 96-well deep-well block in the presence of 5.0 μM unlabeled GDP, approximately 0.5 nM of [^35S]GTPγS, and increasing concentrations of test compounds. Samples were incubated at 37° C. for 5 min and the assays were terminated by the addition of cold buffer (50 mM Tris-HCl, 75 mM NaCl, and 2.5 mM MgCl2, pH 7.6) and subsequent harvesting onto a Packard Unifilter 96-well GF/B plate followed by extensive washing. Microscint 20 (PerkinElmer Life Sciences) was added to the samples, and bound [^35S]GTPγS was determined using the Topcount (Perkin Elmer Life Sciences). The percentage of [^35S]GTPγS bound in each sample was calculated as a percentage of that bound to control samples incubated in the absence of the H3R agonists (basal). Data were analyzed from experiments performed in triplicate using GraphPad Prism to obtain pEC50 values, Hill slopes, and maximal % response.

In assay [5] the target is T2, human histamine H3 receptor. Kind of assay: Radioligand competition binding assay, human H3 receptor. To be noted: [3H]-N-α-methylhistamine competition binding.
The target of another assay is rat H3R (Rattus norvegicus (Rat), UniProt Q9QYN8). In words: GTPγS functional assay, membranes from C6 cells expressing the rat H3R. The settings on record: for EC50: GTPγS agonist potency; for Emax: 5 min, read-out: Rat Maximum (%). The format is biochemical. As to the method:
as §2

The target of a further assay is H3 receptor (Mus musculus (Mouse), UniProt P58406). Kind of assay: Mouse dipsogenia model (water intake). The format is in vivo, CD-1 mouse. As to the method:
Intraperitoneal administration of an H3 receptor agonist such as R-alpha-methyl-histamine elicits drinking in the hydrated CD-1 mouse (Fox, G. B.; et al. Pharmacology Biochemistry and Behavior 2002, 72, 741-750). This dipsogenic response is an indication of agonist activity in vivo and can be monitored by measuring the water intake of drug-treated animals in a 30 minute period.

The mark [6] stands for this setting: FLIPR, percentage of the response to 1 μM RAMH.
[7] abbreviates: [35S]GTPγS bound as percentage of basal.

Some results are limits rather than exact numbers.

T2 sequence (Q9Y5N1 whole entry): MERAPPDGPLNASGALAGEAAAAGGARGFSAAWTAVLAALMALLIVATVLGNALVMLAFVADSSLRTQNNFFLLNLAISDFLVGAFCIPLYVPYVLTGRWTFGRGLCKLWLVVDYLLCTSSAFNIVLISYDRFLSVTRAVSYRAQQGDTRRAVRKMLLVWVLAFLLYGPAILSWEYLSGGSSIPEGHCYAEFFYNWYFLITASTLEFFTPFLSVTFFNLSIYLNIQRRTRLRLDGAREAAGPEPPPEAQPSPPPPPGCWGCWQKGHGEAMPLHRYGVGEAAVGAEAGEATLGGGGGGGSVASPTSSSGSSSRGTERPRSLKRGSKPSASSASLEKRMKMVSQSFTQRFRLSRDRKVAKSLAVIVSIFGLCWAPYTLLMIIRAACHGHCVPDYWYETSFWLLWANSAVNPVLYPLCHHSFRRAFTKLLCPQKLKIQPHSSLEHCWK
human H3R, sequence (Q9Y5N1 whole entry): as above
rat H3R, sequence (Q9QYN8 whole entry): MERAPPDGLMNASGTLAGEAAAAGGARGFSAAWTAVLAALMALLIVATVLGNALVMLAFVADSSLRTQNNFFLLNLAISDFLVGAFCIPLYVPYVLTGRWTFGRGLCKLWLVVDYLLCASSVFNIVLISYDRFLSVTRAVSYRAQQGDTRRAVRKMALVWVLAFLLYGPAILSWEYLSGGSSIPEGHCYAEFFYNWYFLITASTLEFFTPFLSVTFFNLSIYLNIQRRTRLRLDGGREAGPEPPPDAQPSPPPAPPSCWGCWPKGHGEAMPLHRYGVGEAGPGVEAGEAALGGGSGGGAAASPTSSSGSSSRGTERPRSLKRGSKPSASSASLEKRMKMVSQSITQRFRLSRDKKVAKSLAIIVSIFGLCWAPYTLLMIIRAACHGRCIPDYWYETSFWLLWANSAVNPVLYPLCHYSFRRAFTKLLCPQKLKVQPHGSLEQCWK
T1 sequence (Q9QYN8 whole entry): as above
H3 receptor, sequence (P58406 whole entry): as the sequence (Q9QYN8 whole entry) above, with T15A, A286T, A290G, R387H, I389V counted along it

In the case of `NCCNc1ccnc(N)n1.O=C(O)C(O)C(O)C(=O)O` [Example 1, N^4-(2-aminoethyl)pyrimidine-2,4-diamine(2R,3R)-2,3-dihydroxysuccinate], the Ki amounted to 5.5 nM in assay [1] and 63.1 nM in assay [5]. For the same molecule, the number of writhes result in assay [2] is “significantly reduced”. The EC50 in assay [3] worked out at 124 nM; in assay [4], 5.47 nM; at human H3R, 513 nM; at rat H3R it was 174 nM. The “Human Maximum (%)” value came out at 60.2% in assay [3] (setting [6]) and 147% on human H3R (setting [7]). Also, the “Rat Maximum (%)” value was 100.0% in assay [4] and 181% at rat H3R (setting [7]). On H3 receptor (dose dependently at 80, 160, and 240 μmol/kg, ip, 30 minute period, hydrated CD-1 mouse), the “water intake (dipsogenic response)” value was “induced water intake”.
In the case of `CC(C)(C)OC(=O)N1CCC(CNc2ccnc(N)n2)CC1` [Example 15, tert-butyl 4-((2-aminopyrimidin-4-ylamino)methyl)piperidine-1-carboxylate], the Ki is greater than 331 nM in assay [1] and greater than 355 nM in assay [5]. The EC50 in assay [3] was 43.6 nM; at human H3R, 4790 nM; on rat H3R it was 7410 nM. Moreover, the figures for the Emax (in assay [3] (setting [6]); at human H3R (setting [7]); at rat H3R (setting [7])) were 39%, 117% and 138%, respectively.
With `Nc1nccc(N[C@H]2CC[C@H](N)CC2)n1` [Example 16, Trans-N^4-(4-aminocyclohexyl)pyrimidine-2,4-diamine], the EC50 in assay [3] was found to be 17700 nM. In addition, the Emax in assay [3] (setting [6]) amounted to 34.2%. Further, the “Rat Maximum (%)” value in assay [4] was 74.0%. Also, in assay [5], the Ki is greater than 363 nM.
Take `CC(C)(C)OC(=O)N1CC[C@@H](Nc2ccnc(N)n2)C1` [Example 17, (R)-tert-butyl 3-(2-aminopyrimidin-4-ylamino)pyrrolidine-1-carboxylate]: the values for the Ki in assay [1] and in assay [5] were greater than 339 nM and greater than 363 nM, respectively. For the same molecule, the concentration for a half-maximal effect (EC50) in assay [4] was 4790 nM; at rat H3R, 2340 nM. Besides, the “Rat Maximum (%)” value in assay [4] came out at 75.8%. Besides, the Emax at rat H3R (setting [7]) is 130%.
Turning to `Cl.Cl.Nc1nccc(N[C@@H]2CCNC2)n1` [Example 18, (R)—N^4-(pyrrolidin-3-yl)pyrimidine-2,4-diamine dihydrochloride], the inhibition constant (Ki) was 162 nM in assay [1] and greater than 363 nM in assay [5]. The concentration giving a half-maximal response (EC50) stood at 74 nM in assay [4], 2510 nM at human H3R and 1620 nM on rat H3R. In addition, the “Rat Maximum (%)” value in assay [4] was 78.6%. The Emax on human H3R (setting [7]) stood at 179%; at rat H3R (setting [7]) it was 162%.
With `Cl.Cl.Nc1nccc(N2CCC(N)CC2)n1` [Example 20, 4-(4-aminopiperidin-1-yl)pyrimidin-2-amine dihydrochloride], the Ki in assay [1] is 58.9 nM; in assay [5] it was 302 nM. Moreover, the half-maximal effective concentration (EC50) was determined as 254 nM in assay [3], 51.7 nM in assay [4], 1050 nM on human H3R and 724 nM at rat H3R. Further, the Emax in assay [3] (setting [6]) was 41%; on human H3R (setting [7]) it was 122%; at rat H3R (setting [7]), 123%. The “Rat Maximum (%)” value in assay [4] is 83.0%.
For `O=C(c1ccc(OCCCc2cnc[nH]2)cc1)C1CC1` [ciproxifan, reference compound], the “effect on dipsogenic response to Example 1” value at H3 receptor (ciproxifan 3 μmol/kg, ip against Example 1 240 μmol/kg) is “blocked”.
